Source: ChEMBL document CHEMBL1133048, “A QSAR study investigating the effect of L-alanine ester variation on the anti-HIV activity of some phosphoramidate derivatives of d4T” (2000)

Key:
CCRF-CEM [1] = test: Effective concentration required to inhibit 50% of HIV-2 induced giant cell formation in CEM cell cultures; type: functional, Homo sapiens
CCRF-CEM [2] = test: Effective concentration required to inhibit 50% of HIV-1 induced giant cell formation in CEM cell cultures; type: functional, Homo sapiens
CCRF-CEM [3] = test: Cytotoxic concentration required to inhibit CEM cell proliferation by 50%; type: functional; conditions: Homo sapiens

| Log 1/EC50 (CCRF-CEM [1]) | Log 1/EC50 (CCRF-CEM [2]) | SMILES | CC50 (CCRF-CEM [3]) [µM] |
| --- | --- | --- | --- |
| 1.13 | 1.13 | COC(=O)C(C)NP(=O)(OC[C@@H]1C=C[C@H](n2cc(C)c(=O)[nH]c2=O)O1)Oc1ccccc1 (stereo partly drawn) | 100 |
| 1.26 | 1.22 | CCCCCCOC(=O)C(C)NP(=O)(OCC1C=CC(n2cc(C)c(=O)[nH]c2=O)O1)Oc1ccccc1 (stereo not drawn) | 48 |
| -0.041 | 0.071 | Cc1cn(C2C=CC(COP(=O)(NC(C)C(=O)OC(C)(C)C)Oc3ccccc3)O2)c(=O)[nH]c1=O (stereo not drawn) | 250 |
| 1.35 | 1.3 | Cc1cn(C2C=CC(COP(=O)(NC(C)C(=O)OCC(C)(C)C)Oc3ccccc3)O2)c(=O)[nH]c1=O (stereo not drawn) | 43.5 |
| 1.1 | 1.35 | CCCCCOC(=O)C(C)NP(=O)(OCC1C=CC(n2cc(C)c(=O)[nH]c2=O)O1)Oc1ccccc1 (stereo not drawn) | 40.5 |
| 1.1 | 1.33 | CCCOC(=O)C(C)NP(=O)(OCC1C=CC(n2cc(C)c(=O)[nH]c2=O)O1)Oc1ccccc1 (stereo not drawn) | 40 |
| 1.16 | 1 | CCOC(=O)C(C)NP(=O)(OCC1C=CC(n2cc(C)c(=O)[nH]c2=O)O1)Oc1ccccc1 (stereo not drawn) | 55 |

Second part, the compound before the results:

| SMILES | Log 1/EC50 (CCRF-CEM [1]) | Log 1/EC50 (CCRF-CEM [2]) | CC50 (CCRF-CEM [3]) [µM] |
| --- | --- | --- | --- |
| Cc1cn(C2C=CC(COP(=O)(NC(C)C(=O)Oc3ccccc3)Oc3ccccc3)O2)c(=O)[nH]c1=O (stereo not drawn) | 1.1 | 1.6 | – |
| Cc1cn(C2C=CC(COP(=O)(NC(C)C(=O)OCC3CCCCC3)Oc3ccccc3)O2)c(=O)[nH]c1=O (stereo not drawn) | – | 1.4 | 12.1 |
| Cc1cn(C2C=CC(COP(=O)(NC(C)C(=O)OC3CCCCC3)Oc3ccccc3)O2)c(=O)[nH]c1=O (stereo not drawn) | 1.13 | 1.19 | 51.4 |
| Cc1cn(C2C=CC(COP(=O)(NC(C)C(=O)OCc3cccc4ccccc34)Oc3ccccc3)O2)c(=O)[nH]c1=O (stereo not drawn) | 1.22 | 1.52 | 21.6 |
| CCCCOC(=O)C(C)NP(=O)(OCC1C=CC(n2cc(C)c(=O)[nH]c2=O)O1)Oc1ccccc1 (stereo not drawn) | – | – | 60 |
| Cc1cn(C2C=CC(COP(=O)(NC(C)C(=O)OCCc3ccccc3)Oc3ccccc3)O2)c(=O)[nH]c1=O (stereo not drawn) | 0.155 | 0.071 | 250 |
| Cc1cn(C2C=CC(COP(=O)(NC(C)C(=O)OCCCc3ccccc3)Oc3ccccc3)O2)c(=O)[nH]c1=O (stereo not drawn) | -0.217 | 0 | 250 |
